Source: EP1101492A1, “NOVEL REMEDIES FOR ALLERGIC DISEASES” (FUJI YAKUHIN KOGYO KABUSHIKI KAISHA, priority 1998, dated 2000)

Columns and labels:
[1] = system: IgE; experiment: Serum IgE level in sensitized and DNFB-elicited mice (ELISA); format: in vivo, Balb/c mice; details: 100 µg/ear in ethanol painted twice a day, 1 hour pre-elicitation, 0.25, 4, 5 and 6 days post-elicitation; serum 7 days post-elicitation; average ± standard deviation; untreated 34.55 ± 8.89, healthy 11.79 ± 2.35
From the text: Ethanol alone was also painted onto both sides of a mouse left auricle. […] Blood was also drawn from unsensitized healthy mice and untreated mice and treated to give serum samples. Seven days post-elicitation, blood samples were drawn by cardiac puncture using a syringe treated with heparin, and then centrifuged to give serum samples.
A dilution of polyclonal goat anti-mouse IgE antibody (Bethyl Laboratories, Inc.; 500-fold dilution) in 0.1 M sodium carbonate-sodium bicarbonate buffer (pH 9.6) was added to each well of a 96-well microtest plate (MaxiSorp, Nunc, Inc.) at a rate of 100 µL/well and the resultant microtest plates were allowed to stand at about 4°C overnight in a refrigerator. Each well was rinsed 3 times with phosphate buffer (pH 7.4) containing 0.05% Tween 20. Next, 0.1 M sodium carbonate-sodium bicarbonate buffer (pH 9.6) containing 1 % bovine serum albumin was added to each well at a rate of 100 µL/well. The resultant microtest plates were allowed to stand at room temperature for 1 hour and washed 3 times. Thereafter, 2-fold serial dilutions of mouse serum samples were poured into each well of microtest plates at 100 µL/well, which was subjected to an antigen-antibody reaction at 4°C for 2 hours. […] The resultant enzymatic reaction products were measured at 405 nm.

[2] = Body weight gain in mice; details: test compounds 60 mg/kg s.c., prednisolone 10 mg/kg i.p., once a day for 6 days (Days 0-5), average ± standard deviation; for Body Weight Gain, Observation Day 5: non-administered 0.50± 0.23; for Body Weight Gain, Observation Day 7: non-administered 0.80± 0.48; for Body Weight Gain, Observation Day 10: non-administered 1.07± 0.58
Protocol: Accordingly, for assessing the side-effect each of the following test compounds an action on body weight gains was examined.
Next the mice were measured for their body weight. Each body weight gain was calculated on Days 5, 7 and 10 post-administration based on the body weight just prior to administration.

[3] = system: mouse experimental atopic dermatitis models; experiment: Auricle edema in experimental atopic dermatitis model (anti-DNP IgE sensitization, DNFB elicitation); format: in vivo, Balb/c mice; details: for % Inhibition IPR: auricle edema 1 hour post-elicitation; for % Inhibition IPR / % Inhibition LPR / % Inhibition vLPR: test compounds 60 mg/kg s.c., prednisolone 10 mg/kg i.p.; for % Inhibition IPR / % Inhibition LPR: once a day, 24 & 2 hours prior to DNFB-elicitation, vs untreated group; for % Inhibition LPR: auricle edema Day 1 post-elicitation; for % Inhibition vLPR: auricle edema Day 7 post-elicitation
Protocol: Intravenous injection of an anti-2,4-dinitrophenol (DNP) antibody (anti-DNP Ab, monoclonal IgE Ab; its antibody titer was 1 : 512 to 1 : 1024 by a rat heterologous passive cutaneous anaphylaxis reaction using a Wister rat) into a tail vein of female Balb/c mice (7-week old, body weight: 17 to 20 g, purchased from JAPAN SLC, Inc.) at a dose of […] per animal raised passive sensitization. Twenty four hours post-sensitization, 0.1% 2,4-dinitrofluorobenzene (DNFB; Nacalai Tesque, Inc.) in ethanol was painted onto both sides of a pair of mouse auricles at a dose of 10µL per each side for elicitation.
Fresh unsensitized mice were painted with 0.1% DNFB in ethanol onto their ear in the same manner as aforementioned and served as a control group. Not only immediately prior to elicitation but also 1 hour, 5 hours, daily between Days 1 and 14, and on Day 16 post-elicitation, ear thickness was measured using a dial thickness gauge (Peacock Co.). Each degree of auricle edemas was calculated: Auricular Edema (µm)=(Ear Thickness Post-Elicitation, µm) - (Ear Thickness immediately prior to Elicitation, µm) [formula]
Balb/c mice were passively sensitized with anti-DNP IgE Ab in the same manner as in Example 1. Twenty four hours later, 0.1% DNFB in ethanol was painted onto both sides of a pair of mouse auricles at a dose of 10 µL per each side for elicitation.
Immediately prior to elicitation, 1 hour and on Day 1 post-elicitation, auricle thickness was measured in the same manner as in Example 1. Each therapeutic efficacy is recorded as a percent inhibition wherein the "auricle edema (untreated group)" is used as a control. Auricle Edema Inhibition (%) = [ 1 -(Auricle Edema (Treated Group))/(Auricle Edema (Untreated Group))] × 100 (%) [formula]
Immediately prior to elicitation, and on Day 7 post-elicitation, auricle thickness was similarly measured. Each therapeutic efficacy is recorded as a percent inhibition wherein the auricle edema in the untreated group is used as a control.
Immediately prior to elicitation, and on Day 7 post-elicitation, auricle thickness was similarly measured. Each therapeutic efficacy is recorded as a percent inhibition wherein the auricle edema (untreated group) is used as a control.
Immediately prior to elicitation, at 1 and 4 hours and on Days 1, 3 and 7 post-elicitation, auricle thickness was similarly measured. From each auricle edema (µm) based on the auricle thickness immediately prior to elicitation, especially a prophylactically therapeutic efficacy of the test compound was evaluated.
Immediately prior to elicitation, at 0.5, 1 and 4 hours and on Days 1, 3 and 7 post-elicitation, auricle thickness was similarly measured. Each amount of auricle edemas was calculated (average± standard deviation).

[4] = Body weight gain in sensitized mice; format: in vivo; details: test compound 50 µg/ear/dose, prednisolone 5 µg/ear/dose, in ethanol painted twice a day, Days 1, 4 and 7, vs solvent control (ethanol)
Protocol: Experimental atopic dermatitis model mice sensitized in the same manner as in Example 1 were examined for influence on body weight gains.
Each mouse was measured for its body weight not only immediately before the start in painting but also on Days 1, 4 and 7 after the start in painting. Each gain in body weight was calculated and considered to indicate an effect on body weight changes affected by said treatments.

[5] = system: guinea pig experimental bronchial asthma models; experiment: Experimental bronchial asthma model (ovalbumin inhalation): airway resistance and asthmatic death; details: prednisolone 10 mg/kg orally;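 note: female Std:Hartley guinea pigs sensitized by inhaling nebulized ovalbumin once daily for 8 consecutive days, 8 to 11 animals per group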
Protocol: Guinea pigs (female, Std:Hartley, 3 weeks old, 200 to 250 g) were individually housed in a plastic chamber (width, 200 mm; depth, 300 mm; height, 167 mm). Aqueous ovalbumin (10 mg/mL) was administered to the guinea pigs once a day for sensitization by 10 min. inhalation with a nebulizer (5B, Nippon Shoji K.K.: flow rate, 6 L/min.) at a dose of 10 mg/mL during 8 cosecutive days. On Day 7 after the final sensitization, the guinea pigs were housed in a plastic chamber and inhaled using a nebulizer with a solution of ovalbumin (10 mg/mL) in physiological saline for 1 min. for elicitation (Matsumoto, T., et al., The Journal of Pharmacology and Experimental Therapeutics, 269: 1236-1244, 1994). The number of animals employed in the experiment was set to the extent there are at least 6 as individuals escaping asthmatic death. A solution of a test compound (Compound No. 130, 15 mg/kg) in water for injection was administered subcutaneously twice, i.e., 24 hours and 2 hours prior to elicitation. Similarly, the solvent alone was also administered to a negative control group. A suspension of prednisolone (10 mg/kg) in 0.5% aqueous methyl cellulose was administered orally twice, i.e., 24 hours and 2 hours prior to elicitation. Similarly, the solvent alone was also administered to another control group.
The evaluation for efficacies was conducted in terms of airway resistance. For this purpose, an apparatus dedicated to the measurement of airway resistance (K.K. Medical Agent) was employed. Measurement includes setting a guinea pig in a test chamber under a not-anesthetized condition, applying sinusoidal pressure waves of 30 Hz components to a part below the neck of the animal from the back side of the chamber, measuring respiratory waves of 30 Hz components leaking through the mouth (volume of 30 Hz air flow passing through the respiratory tract) in front of the neck, and calculating airway resistance mechanically. Measurement was carried out immediately prior to the first drug treatment (24 hours before elicitation), just prior to elicitation, 10 minutes, 1, 2, 4, 6, and 8 hours post-elicitation.
It was visually observed by a person carrying out said test in terms, of the appearance of cyanosis or suffocative death (asthmatic death) due to respiratory obstruction.
Guinea pigs were sensitized with ovalbumin and asthma was induced on Day 7 after final sensitization in the same manner as in Example 20. The number of animals employed in the experiment was set to the extent there are at least 6 as individuals escaping asthmatic death (8 to 11 animals/group). In the same manner as in Example 20, the animals were measured for airway resistance mechanically and each percent change (%) in airway resistance was calculated (each value just prior to elicitation was set as 100%). Each percent amelioration in airway resistance was calculated from the percent changes in airway resistance according to the following formula: Amelioration in Airway Resistance (%) = 1 -[((Percent Change in Airway Resistance after Drug-Administration) - (Value just prior to Challenge (100)))/((Percent Change in Airway Resistance after Solvent-Administration) - (Value just prior to Challenge (100)))]× 100 [formula]

[6] = daily from 3 to 6 days after DNFB-elicitation
[7] = daily from 1 day prior to through 5 days after DNFB-elicitation
[8] = asthmatic death due to cyanosis within several minutes after elicitation, Compound No. 130 15 mg/kg s.c., 24 and 2 hours prior to elicitation
[9] = test compounds 15 mg/kg s.c. (Compound No. 114: 30 mg/kg), 24 and 2 hours prior to elicitation, vs solvent control

Structure (SMILES)	Serum IgE Level [1] [ng/mL]	Body Weight Gain, Observation Day 5 [2]	Body Weight Gain, Observation Day 7 [2]	Body Weight Gain, Observation Day 10 [2]	inhibitory efficacy on IgE-mediated auricle edema (FIG. 8) ([3]; 150 mg/kg orally once a day, compared to solvent control group, IPR 1 hour, LPR 1 day, vLPR 7 days)	% Inhibition IPR [3] [%]	% Inhibition LPR [3] [%]	% Inhibition vLPR [3, 6] [%]	% Inhibition vLPR [3, 7] [%]	gain in body weight (FIG. 10) [4]	% Mortality [5, 8] [%]	(Dead Animals)/(Tested Animals) [5, 8]	% Survival ([5]; asthmatic death within several minutes after elicitation, test compounds 15 mg/kg s.c. (Compound No. 114: 30 mg/kg), water for injection 54.5, 0.5% methyl cellulose 66.7) [%]	% Amelioration in Airway Resistance, 1 Hour after Elicitation [5, 9] [%]	% Amelioration in Airway Resistance, 6 Hours after Elicitation [5, 9] [%]	% Amelioration in Airway Resistance, Immediately after Elicitation [5, 9] [%]
CC(=N)NCCCC[C@H](NC(=O)[C@H](CC(C)C)C(CCCc1ccccc1)C(=O)NO)C(=O)NCCN(C)C.CC(=O)O.CC(=O)O (mixture of isomers) [Compound No. 44, N^a-[4-(Hydroxyamino)-2(R)-isobutyl-3(RS)-(3-phenylpropyl)succinyl]-N^e-acetimidoyl-L-lysine N-(2-N',N'-dimethylaminoethyl)amide · 2 acetate]	26.70 ± 10.88	0.80± 0.30	1.08± 0.57	1.23± 0.56	not only an inhibitory activity on the development of edemas in both IPR and LPR but also a remarkably strong inhibitory activity in vLPR	43.9	43.6	65.6	22.0							
C[C@]12C=CC(=O)C=C1CC[C@@H]1[C@@H]2[C@@H](O)C[C@@]2(C)[C@H]1CC[C@]2(O)C(=O)CO [Prednisolone, reference compound]		0.00± 0.26	0.03± 0.57	0.97± 0.47		36.8	29.9	24.8	24.8	below that in the solvent control group	22.2	2/9	75.0	23.6	14.8	11.5
